Test [1] concerns Guinea Pig Platelets. Kind of test: In vitro inhibition of collagen-induced platelet aggregation, guinea pig platelet-rich plasma. The format is cell-based. Particulars: guinea pig PRP, collagen 1 μg/ml, 3 minutes of contact at 37° C. The protocol:
(§1) A study of the inhibitory activity of the compounds of formula I on platelet aggregation was carried out in vitro, i.e. by direct contact of solutions of variable concentrations of the compounds with platelets freshly separated from a sample of whole blood, taken under standardized conditions, from laboratory animals (guinea pigs) and from healthy human subjects who have not received any substances or drugs that might interfere with blood clotting. The anti-platelet-aggregating activity was also studied ex vivo/vitro, i.e. after administration of the substances claimed in guinea pigs to measure the intensity and duration of the anti-aggregating action induced by the fraction of the test product absorbed and circulating in the blood.
1.1. Studies on Guinea Pig Platelets
Blood is taken by intracardiac puncture from male Dunkin-Hartley guinea pigs (weighing about 330 g), at a rate of 4.5 ml per 0.5 ml of trisodium citrate (concentration of the aqueous solution: 1.55%) in order to prevent all trace of clotting. The platelet-rich plasma (PRP) is obtained by centrifuging the tubes of whole blood for 15 minutes at 150 g.
The PRPs are collected as. “pools”. The platelets contained in these pools are counted using a Coulter ZM haematology automatic device: if necessary, a dilution is carried out in order for the platelet concentration in the plasma to be between 200,000 and 400,000 platelets/mm^3. Simultaneously, other samples of these pools serve to prepare the platelet-poor plasma (PPP) by centrifugation at 1,500 g for 15 minutes.
The kinetic study of the platelet aggregation is carried out by adding a collagen solution (1 μg/ml) to a volume of PRP, using a Chrono-log Corporation aggregometer (490-D1 or 560 VS) which uses an optical detection of the appearance of the thrombus.
The measurements of the aggregation inhibition are carried out after 3 minutes of contact at 37° C. with agitation.

Test [2] relates to Human Platelets. Kind of test: In vitro inhibition of collagen-induced platelet aggregation, human platelet-rich plasma. The conditions noted are these: human PRP, collagen 5 μg/ml, 3 minutes of contact at 37° C., read-out: IC50 (M) in vitro Man. Format: cell-based. The protocol: A study of the inhibitory activity of the compounds of formula I on platelet aggregation was carried out in vitro, i.e. by direct contact of solutions of variable concentrations of the compounds with platelets freshly separated from a sample of whole blood, taken under standardized conditions, from laboratory animals (guinea pigs) and from healthy human subjects who have not received any substances or drugs that might interfere with blood clotting. The anti-platelet-aggregating activity was also studied ex vivo/vitro, i.e. after administration of the substances claimed in guinea pigs to measure the intensity and duration of the anti-aggregating action induced by the fraction of the test product absorbed and circulating in the blood. 1.2 Study on Human Platelets Venous blood is taken from a group of ten healthy human subjects of the same age, by puncture into a vein of the fold of the elbow and is collected in a glass tube containing aqueous 0.129 M sodium citrate solution (1 volume of citrate solution per 9 volumes of blood). Each tube is then centrifuged a first time at 20° C. and 100 g for 15 minutes in order to obtain the platelet-rich plasma (PRP); after removing this PRP, the tube is again centrifuged at 2,000 g for 15 minutes in order this time to remove the platelet-poor plasma (PPP). For each identified sample of PRP, the platelets are counted using a Coulter ZM counter. […] A control test intended to check the possible effect of the solvents (reference value) on the platelet aggregation is introduced into each measurement series, and is measured after 3 minutes of contact at 37° C. with agitation.

The test system of test [3] is platelet aggregation induced by collagen. The test can be described thus: Ex vivo/vitro anti-platelet-aggregating activity in guinea pigs after gastric administration. Also on record: species or system guinea pig. Particulars: for % of g.r. inhibition guinea pig ex vivo d = 150 mg/kg −1 h: administered 1 h before blood is taken; for % of g.r. inhibition guinea pig ex vivo d = 150 mg/kg −2 h: administered 2 h before blood is taken. As to the method: as §1
2. ex vivo/vitro Pharmacological Study in Guinea Pigs
Evaluation of the anti-platelet-aggregating activity of the compounds is carried out in the same guinea pigs as those mentioned above (Dunkin-Hartley strain). The administration of each product in a range of doses from 150 mg/kg to 10 mg/kg and of each vehicle (5 ml/kg) is carried out via the gastric route (g.r.) 1h or 2h or 4h or 6h or 8h or 12h before blood is taken from the guinea pigs fasted the day before. The allocation of the treatments to the animals is random.
The blood is taken and then treated under the same conditions as those described above for the in vitro studies.
The results of the inhibition of the platelet aggregation obtained for each test concentration make it possible to calculate the IC50 concentration of each test product and the kinetics of the inhibitory effect and its duration of action.

Setting [4] is: Cavia porcellus, Platelet, 0.05 h.

Like-named read-outs stand apart in the source and are kept apart here.

Regarding `Cl.N=C(N)c1ccc(N2CCN(CC(=O)NC(CC(=O)O)c3ccc4c(c3)OCO4)C(=O)C2)cc1` (stereo not drawn) [Example 19, 3-{[2-(4-{4-[amino(imino)methyl]phenyl}-2-oxopiperazino)acetyl]amino}-3-(1,3-benzodioxol-5-yl)propanoic acid hydrochloride], half-maximal inhibition in test [1] (setting [4]) (IC50) required 150 nM. In addition, the concentration for half-maximal inhibition (IC50) (usually the concentration needed to halve the response being measured) in test [2] (Platelet, 0.05 h) came out at 3.4e-07 M. For the same compound, the “anti-aggregating action ex-vivo in guinea pigs, oral dose 10 mg/kg, 1h” value in test [3] (10 mg/kg, administered 1h before the aggregation test) is given as 57%. Further, the “anti-aggregating action ex-vivo in guinea pigs, oral dose 10 mg/kg, 2h” value in test [3] (10 mg/kg, administered 2h before the aggregation test) came out at 24%. Moreover, in test [3], the “% of g.r. inhibition guinea pig ex vivo d = 150 mg/kg −1 h” value was −69% and the “% of g.r. inhibition guinea pig ex vivo d = 150 mg/kg −2 h” value is listed as −78%.
For the compound `Cl.N=C(N)c1ccc(N2CCN(CC(=O)NCCC(=O)O)CC2=O)cc1` [Example 28, 3-{[2-(4-{4-[amino(imino)methyl]phenyl}-3-oxopiperazino)acetyl]amino}propanoic acid hydrochloride], the IC50 in test [1] (setting [4]) came out at 16000 nM; in test [2] (Platelet, 0.05 h), 1.4e-06 M. Further, the “% of g.r. inhibition guinea pig ex vivo d = 150 mg/kg −1 h” value in test [3] is reported as −28%. For the same compound, the “% of g.r. inhibition guinea pig ex vivo d = 150 mg/kg −2 h” value in test [3] is −23%.
On to `Cl.N=C(N)c1ccc(N2CCN(CC(=O)NC(CC(=O)O)c3ccc4c(c3)OCO4)CC2=O)cc1` (stereo not drawn) [Example 30, 3-{[2-(4-{4-[amino(imino)methyl]phenyl}-3-oxopiperazino)acetyl]amino}-3-(1,3-benzodioxol-5-yl)propanoic acid hydrochloride], for which the half-maximal inhibitory concentration (IC50) in test [1] (setting [4]) came out at 15000 nM. Further, the concentration for half-maximal inhibition (IC50) in test [2] (Platelet, 0.05 h) stood at 1.2e-06 M. Also, in test [3], the “% of g.r. inhibition guinea pig ex vivo d = 150 mg/kg −1 h” value is given as −14% and the “% of g.r. inhibition guinea pig ex vivo d = 150 mg/kg −2 h” value is reported as −17%.
Take “Ethyl 3-{[2-(4-{4-[amino(imino)methyl]phenyl}-2-oxopiperazino)-acetyl]amino}-3-(pyridyl)propanoate acetate [Example 20]”: in test [1], the IC50 turned out to be 630 nM. The IC50 in test [2] was 2.8e-05 M. In test [3], the “% of g.r. inhibition guinea pig ex vivo d = 150 mg/kg −1 h” value was −65% and the “% of g.r. inhibition guinea pig ex vivo d = 150 mg/kg −2 h” value is given as −64%.

Source of the values: patent US6344456B1, “Piperazinone derivatives and their uses” (Laboratoire L. Lafon, priority 1998, dated 2002).
